{
  "source": "paper PMC12322260",
  "about": "“Anticancer activity of triterpene glycosides from the sea star Solaster pacificus” (Scientific Reports, 2025)",
  "key": {"[1]": {"system": "22Rv1 cells", "assay": "MTT cytotoxicity assay", "type": "cell-based, human", "conditions": "Homo sapiens; 22Rv1, 48 h, mean ± SD", "excerpt": "(§1) The cell lines were purchased from ATCC (Manassas, VA, USA) or ECACC (Salisbury, UK). The following cell lines were used: Human prostate cancer cells LNCaP (ATCC; RRID:CVCL_0395), VCaP (ECACC; RRID:CVCL_2235), 22Rv1 (ATCC; RRID:CVCL_1045), PC3 (ATCC; RRID:CVCL_0035), and DU145 (ATCC; RRID:CVCL_0105); human prostate non-cancer cells PNT2 (ATCC; RRID:CVCL_2164) and RWPE-01 (ATCC; RRID:CVCL_3791). Human non-cancer embryonic kidney cells HEK293T (ECACC; RRID:CVCL_0063) and human fibroblast cells MRC-9 (ECACC; RRID:CVCL_2629). The docetaxel-resistant cells PC3-DR were generated by long-term treatment of human prostate cancer PC3 cells with sublethal concentrations of docetaxel as previously described[32] and were provided by Prof. Z. Culig (Innsbruck Medical University, Austria). All cell lines were recently authenticated by a commercial service (Multiplexion GmbH, Heidelberg, Germany) and were cultured as previously described[58],[59]. Cells were kept in culture for a maximum of three months and were routinely examined for bacterial, fungal, and mycoplasma infections."}, "[2]": {"system": "DU145 cells", "assay": "MTT cytotoxicity assay", "type": "cell-based, human", "conditions": "Homo sapiens, DU-145; DU145, 48 h, mean ± SD", "excerpt": "as §1"}, "[3]": {"system": "HEK293T cells", "assay": "MTT cytotoxicity assay", "type": "cell-based, human", "conditions": "Homo sapiens, HEK-293T, 48 h, mean ± SD", "excerpt": "as §1"}, "[4]": {"system": "LNCaP cells", "assay": "MTT cytotoxicity assay", "type": "cell-based, human", "conditions": "Homo sapiens, 48 h, mean ± SD", "excerpt": "as §1"}, "[5]": {"system": "MRC-9 cells", "assay": "MTT cytotoxicity assay", "type": "cell-based, human", "conditions": "Homo sapiens, MRC9; MRC-9, 48 h, mean ± SD", "excerpt": "as §1"}, "[6]": {"system": "PC3 cells", "assay": "MTT cytotoxicity assay", "type": "cell-based, human", "conditions": "Homo sapiens, PC-3; PC3, 48 h, mean ± SD", "excerpt": "as §1"}, "[7]": {"system": "PC3-DR cells", "assay": "MTT cytotoxicity assay", "type": "cell-based, human", "conditions": "Homo sapiens, 48 h, mean ± SD", "excerpt": "as §1"}, "[8]": {"system": "PNT2 cells", "assay": "MTT cytotoxicity assay", "type": "cell-based, human", "conditions": "Homo sapiens; PNT2, 48 h, mean ± SD", "excerpt": "as §1"}, "[9]": {"system": "RWPE-1 cells", "assay": "MTT cytotoxicity assay", "type": "cell-based, human", "conditions": "Homo sapiens; RWPE-1, 48 h, mean ± SD", "excerpt": "as §1"}, "[10]": {"system": "VCaP cells", "assay": "MTT cytotoxicity assay", "type": "cell-based, human", "conditions": "Homo sapiens, 48 h, mean ± SD", "excerpt": "as §1"}, "[11]": {"system": "phospho-ERK1/2", "assay": "Western blot analysis of MAP kinases", "type": "cell-based, human", "conditions": "22Rv1, 2 h", "method": "(§2) Fig. 3 Functional kinome profiling of STKs (serine/threonine kinases) in 22Rv1 cells and validation of results. (a) Expression of apoptotic markers. The cells were treated with CuC1 for the indicated time, and the expression of proteins was analyzed by Western blotting. (b, c) Functional kinome profiling. A heatmap displaying log2-transformed phosphorylation levels of 99 analyzed STK substrate peptides (b) and upstream kinase analysis, which predicted kinases affected by CuC1 (c). Values of the normalized kinase statistics represented by bars, where log2 < 0 indicates decreased kinase activity and log2 > 0 denotes increased activity. Statistically significant changes having a specificity score log2 > 1.3 are highlighted by red bars. Number of biological replicates n = 3. (d), Western blot analysis of MAP kinases. 22Rv1 cells were treated with CuC1 for 2 h and the MAPK expression was analyzed by Western blotting. β-actin was used as a loading control. The band intensity of the protein of interest was quantified using Image Lab software and normalized to the band intensity β-actin (a), or to the band intensity of non-phospho MAPK (d), and is indicated by red numbers. Full-size blots are presented in Supplementary Fig. S2.\n(§3) Western blotting was performed as previously described. In brief, 22Rv1 cells were seeded in Petri dishes (1 × 10^6 cells/dish in 10 mL/dish of media), incubated overnight, and treated with the drug for a specific time. Cells were harvested by scratching, washed with cold PBS, and lysed with RIPA buffer supplemented with protease and phosphatase inhibitor cocktails. Protein lysates were separated using precast Mini-PROTEAN® TGX Stain-FreeTM gels (Bio-Rad, Hercules, CA, USA) and SDS-PAGE. Proteins were transferred on a PVDF membrane and detected using specified primary and secondary antibodies. The protein signals were visualized and detected using the ECL chemiluminescence system (Thermo Scientific, Rockford, IL, USA). […] The signal (band) intensity was quantified using Image Lab v. […]"}, "[12]": {"system": "phospho-JNK1/2", "assay": "Western blot analysis of MAP kinases", "type": "cell-based, human", "conditions": "22Rv1, 2 h", "method": "as §2, §3"}, "[13]": {"system": "phospho-p38", "assay": "Western blot analysis of MAP kinases", "type": "cell-based, human", "conditions": "22Rv1, 2 h", "method": "as §2, §3"}, "[14]": {"system": "PC3-DR cells", "assay": "cells", "conditions": "Homo sapiens, 48 h", "protocol": "Viability was evaluated using MTT assay, and IC50s were calculated using GraphPad Prism software. Number of biological replicates n = 3. […] Cells (6 × 10^3 cells/well in 100 μL/well of media) were plated in 96-well plates. The plates were incubated overnight, and the medium was replaced with fresh medium containing drugs at the indicated concentrations. The plates were further incubated for 48 h, unless otherwise stated, the solution of MTT reagent in PBS was added to each well, and cells were incubated for another 2–4 h to form formazan crystals. Then the media was removed and the plates were dried overnight. 50 μL of DMSO was added to each well to dissolve the formazan crystals. The absorbance of each well was measured using an Infinite F200PRO reader (TECAN, Männedorf, Switzerland). The cell viability was estimated as an inhibition concentration (IC50), which was calculated using GraphPad Prism software v.9.1.1 (GraphPad Software, San Diego, CA, USA). IC₅₀ values were determined by fitting the data to a nonlinear regression model (log[inhibitor] versus normalized response—variable slope)."}, "[15]": {"system": "HT-29, RPMI-7951, and MDA-MB-231 cells", "design": "method as in PMID 33799442", "conditions": "nontoxic concentrations; cited from earlier work"}},
  "data": [
    {"compound": "CO[C@@H]1[C@@H](O)[C@H](O[C@@H]2[C@@H](O)[C@H](O[C@H]3[C@H](O)[C@@H](O[C@@H]4OC[C@@H](O)[C@H](O)[C@H]4O)[C@H](O[C@H]4[C@H](O[C@H]5CC[C@]6(C)[C@@H]7CCC89C(=O)O[C@@](C)(/C=C\\C=C(C)C)[C@H]8[C@@H](OC(C)=O)C[C@@]9(C)C7=CC[C@H]6C5(C)C)OC[C@@H](O)[C@@H]4O)O[C@@H]3C)O[C@H](CO)[C@H]2O)OC[C@H]1O", "note": "(stereo partly drawn) [CuC1, cucumarioside C1]", "values": [
      {"measurement": "IC50", "setting": "[1]", "value": "246 ± 17", "unit": "nM"},
      {"measurement": "IC50", "setting": "[2]", "value": "3240 ± 340", "unit": "nM"},
      {"measurement": "IC50", "setting": "[3]", "value": "660 ± 50", "unit": "nM"},
      {"measurement": "IC50", "setting": "[4]", "value": "3000 ± 540", "unit": "nM"},
      {"measurement": "IC50", "setting": "[5]", "value": "959 ± 248", "unit": "nM"},
      {"measurement": "IC50", "setting": "[6]", "value": "1590 ± 120", "unit": "nM"},
      {"measurement": "IC50", "setting": "[7]", "value": "5690 ± 780", "unit": "nM"},
      {"measurement": "IC50", "setting": "[8]", "value": "754 ± 58", "unit": "nM"},
      {"measurement": "IC50", "setting": "[9]", "value": "554 ± 105", "unit": "nM"},
      {"measurement": "IC50", "setting": "[10]", "value": "472 ± 65", "unit": "nM"},
      {"measurement": "active (phosphorylated) ERK1/2", "setting": "[11]", "value": "inhibition of active (phosphorylated) forms"},
      {"measurement": "active (phosphorylated) JNK1/2", "setting": "[12]", "value": "but not JNK1/2"},
      {"measurement": "active (phosphorylated) p38", "setting": "[13]", "value": "inhibition of active (phosphorylated) forms"},
      {"measurement": "IC50", "setting": "[14]", "value": "5690 ± 330", "unit": "nM"},
      {"measurement": "colony formation", "setting": "[15]", "value": "strongly suppressed the colony formation"}
    ]}
  ]
}
